For experiment [1], the target named is T1, purified human C5 (Homo sapiens, UniProt P01031). The experiment is described as follows: Red blood cell (RBC) hemolysis assay, optical, absorbance 412 nm (Example 10, Table 19). The experiment is classed as cell-based. The settings on record: antibody-sensitized sheep erythrocytes, […] human C5 depleted sera, 0.5 nM purified human C5, absorbance 412 nm; read-out: RBC Hemolysis IC50.

The target of experiment [2] is T2, Human C5 (Homo sapiens, UniProt P01031).
T2 construct: purchased Complement Technology
T2 sequence (P01031 19-1676): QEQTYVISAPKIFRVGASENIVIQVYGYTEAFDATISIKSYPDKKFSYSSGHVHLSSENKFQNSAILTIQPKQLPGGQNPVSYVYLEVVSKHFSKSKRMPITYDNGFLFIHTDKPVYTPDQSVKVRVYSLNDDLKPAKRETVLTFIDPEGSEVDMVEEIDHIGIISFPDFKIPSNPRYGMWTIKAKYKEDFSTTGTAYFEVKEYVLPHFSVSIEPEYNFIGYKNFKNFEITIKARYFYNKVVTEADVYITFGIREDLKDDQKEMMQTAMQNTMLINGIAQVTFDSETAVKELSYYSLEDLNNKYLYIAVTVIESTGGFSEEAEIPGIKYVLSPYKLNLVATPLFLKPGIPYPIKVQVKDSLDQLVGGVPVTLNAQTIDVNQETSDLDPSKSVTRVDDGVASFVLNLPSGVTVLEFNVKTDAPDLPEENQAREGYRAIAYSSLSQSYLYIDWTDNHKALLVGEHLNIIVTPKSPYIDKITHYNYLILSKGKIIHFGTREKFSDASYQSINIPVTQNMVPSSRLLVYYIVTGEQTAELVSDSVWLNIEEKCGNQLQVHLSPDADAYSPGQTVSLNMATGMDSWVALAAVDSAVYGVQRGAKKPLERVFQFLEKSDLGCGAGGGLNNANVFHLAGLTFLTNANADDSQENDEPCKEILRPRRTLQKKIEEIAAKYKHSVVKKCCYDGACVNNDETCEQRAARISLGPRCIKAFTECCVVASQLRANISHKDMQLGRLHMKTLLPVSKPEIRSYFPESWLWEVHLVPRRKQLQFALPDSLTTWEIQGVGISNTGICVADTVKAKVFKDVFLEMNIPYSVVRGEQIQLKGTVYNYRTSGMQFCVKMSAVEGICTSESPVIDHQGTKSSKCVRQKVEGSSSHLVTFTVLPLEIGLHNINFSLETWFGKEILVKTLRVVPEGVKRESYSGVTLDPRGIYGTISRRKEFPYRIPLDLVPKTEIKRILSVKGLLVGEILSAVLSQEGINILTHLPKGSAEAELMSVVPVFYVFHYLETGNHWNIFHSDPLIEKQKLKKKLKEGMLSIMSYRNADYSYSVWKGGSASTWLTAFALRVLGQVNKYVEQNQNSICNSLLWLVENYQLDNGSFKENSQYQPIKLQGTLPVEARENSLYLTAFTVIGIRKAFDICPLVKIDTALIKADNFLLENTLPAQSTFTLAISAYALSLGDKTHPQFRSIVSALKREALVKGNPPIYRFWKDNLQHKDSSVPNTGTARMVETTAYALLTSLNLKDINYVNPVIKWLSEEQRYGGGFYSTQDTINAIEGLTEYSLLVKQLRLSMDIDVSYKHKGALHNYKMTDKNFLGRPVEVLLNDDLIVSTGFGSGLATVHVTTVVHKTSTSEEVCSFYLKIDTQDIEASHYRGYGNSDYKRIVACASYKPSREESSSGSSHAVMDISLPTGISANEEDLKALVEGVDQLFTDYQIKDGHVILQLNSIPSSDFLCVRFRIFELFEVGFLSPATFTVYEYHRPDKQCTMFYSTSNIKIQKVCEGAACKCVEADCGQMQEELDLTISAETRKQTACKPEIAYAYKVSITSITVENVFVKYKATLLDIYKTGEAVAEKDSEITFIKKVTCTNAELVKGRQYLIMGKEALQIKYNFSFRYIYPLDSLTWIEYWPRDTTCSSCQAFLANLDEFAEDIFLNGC
The experiment is described as follows: Surface plasmon resonance (SPR), immobilized human C5 (Example 9, Table 18). The experiment is classed as binding. From the text: Morrison and Boyd in “Organic Chemistry”, 6th edition, Prentice Hall (1992)] and validated for proper structure by mass spectrometry.

Experiment [3] deals with T1, purified human C5. The experiment is described as follows: Red blood cell hemolysis assay, optical, absorbance 412 nm (Example 3, Table 6). The experiment is classed as cell-based. The settings on record: antibody-sensitized sheep erythrocytes, 1.5% human C5 depleted sera, 0.5 nM human C5; average where replicates.
Experiment [4] addresses T2, Human C5. The experiment is described as follows: Surface plasmon resonance (SPR), compounds on immobilized human C5 (Example 2, Table 5). The experiment is classed as binding. The settings on record: lowest value where a range of compound concentrations were analyzed. (In general: Surface plasmon resonance follows binding to a sensor surface in real time, without labels.)

The mark [5] stands for this setting: immobilized human C5, equilibrium dissociation constant, read-out: SPR C5 EQ KD.
Where [6] appears, read: SPR, human C5 immobilized, read-out: equilibrium dissociation constant for interaction with C5.

Each structure is given as a SMILES string.

The text below walks through data of patent US20230115176A1 (Ra Pharmaceuticals, Inc., priority 2019, published 2023).

T1 sequence (P01031 19-1676): as above

The IC50 is the midpoint of a concentration-inhibition curve. For the molecule `COc1ccc(NC(=O)N(C)Cc2cccc3ccn(C)c23)cc1OCCCC(C)C` [Compound C5INH-0492], the IC50 in experiment [1] was 2650 nM. In addition, the Kd in experiment [2] (setting [5]) turned out to be 2070 nM. The like results for `COc1ccc(NC(=O)NCc2cccc(NC(C)=O)c2)cc1OCCCC(C)C` [Compound C5INH-0496] were, in that order, 400 nM and 600 nM. The like results for `CNc1cccc(CNC(=O)Nc2ccc(OC)c(OCCCC(C)C)c2)c1` [Compound C5INH-0497] were, in that order, 913 nM and 1400 nM. The like results for `COc1ccc(CNC(=O)Nc2ccc(OC)c(OCCCC(C)C)c2)cn1` [Compound C5INH-0498] were, in that order, 4640 nM and 1480 nM. Take `COc1ccc(NC(=O)NCc2cccc3c2ncn3S(=O)(=O)c2ncc[nH]2)cc1OCCCC(C)C` [Compound C5INH-0500]: in experiment [1], the IC50 was 556 nM. Besides, the Kd in experiment [2] (setting [5]) was 334 nM. The like results for `COc1ccc(NC(=O)NC(C(=O)O)c2cccc(OC)c2O)cc1OCCCC(C)C` (stereo not drawn) [Compound C5INH-0501] were, in that order, 468 nM and 330 nM. Take `COCc1cccc(CNC(=O)Nc2ccc(OC)c(OCCCC(C)C)c2)c1` [Compound C5INH-0502]: the IC50 in experiment [1] was 3090 nM. For the same molecule, the Kd in experiment [2] (setting [5]) stood at 1910 nM. The like results for `COc1cc(CNC(C)=O)c(NC(=O)NCc2ccnc3[nH]ccc23)cc1OCCCC(C)C` [Compound C5INH-0504] were, in that order, 318 nM and 316 nM. As for `COc1ccc(NC(=O)NCc2cccc3c2ccn3CC(=O)N(C)C)cc1OCCCC(C)C` [Compound C5INH-0516], the IC50 in experiment [1] worked out at 127 nM. Further, the Kd in experiment [2] (setting [6]) is less than 20 nM; in experiment [2] (setting [5]), 16 nM. The like results for `COc1ccc(NC(=O)NCc2cc(F)cc3[nH]ccc23)cc1OCCCC(C)C` [Compound C5INH-0517] were, in that order, 369 nM, less than 20 nM and 10.7 nM. The like results for `COc1ccc(NC(=O)NCc2cccc3c2ccn3Cc2ccncc2)cc1OCCCC(C)C` [Compound C5INH-0518] were, in that order, 300 nM, less than 20 nM and 14 nM. Turning to `COc1ccc(NC(=O)NCc2cccc3c2ccn3CC2CCCN2C)cc1OCCCC(C)C` (stereo not drawn) [Compound C5INH-0519], in experiment [1], the IC50 was found to be 96.7 nM. Further, the Kd in experiment [2] (setting [6]) was less than 20 nM; in experiment [2] (setting [5]), 9.3 nM.

Regarding `COc1ccc(NC(=O)NCc2cccc3c2ccn3CCCN(C)C)cc1OCCCC(C)C` [Compound C5INH-0524], the IC50 in experiment [1] was 65 nM. Further, in experiment [2] (setting [5]), the Kd is 27 nM. For the molecule `COc1ccc(NC(=O)NCc2ccnc3c2ccn3CC(=O)N2CCN(C)CC2)cc1OCCCC(C)C` [Compound C5INH-0526], the IC50 in experiment [1] was determined as 31.5 nM. In experiment [2] (setting [5]), the Kd was found to be 27 nM. For `COc1cc(CN(C)C(C)=O)c(NC(=O)NCc2ccnc3[nH]ccc23)cc1OCCCC(C)C` [Compound C5INH-0527], in experiment [1], the IC50 came to 2270 nM. For the same molecule, in experiment [2] (setting [5]), the Kd was determined as 650 nM. The like results for `COc1ccc(NCCCN2CCOCC2)cc1CNC(=O)Nc1ccc(OC)c(OCCCC(C)C)c1` [Compound C5INH-0534] were, in that order, 1110 nM and 260 nM. The like results for `COc1ccc(NCCCN(C)C)cc1CNC(=O)Nc1ccc(OC)c(OCCCC(C)C)c1` [Compound C5INH-0535] were, in that order, 1040 nM and 260 nM. In the case of `COc1ccc(NC(=O)NCc2cccc3c2ncn3CCN(C)C)cc1OCCCC(C)C` [Compound C5INH-0536], the IC50 in experiment [1] was found to be 175 nM. For the same molecule, the Kd in experiment [2] (setting [5]) is 32 nM. As to `COc1ccc(NC(=O)NCc2cccc3[nH]ccc23)cc1OCCCC(C)C` [Compound C5INH-0537], the IC50 in experiment [1] was 138 nM. Moreover, in experiment [2] (setting [5]), the Kd amounted to 81 nM. The like results for `COc1ccc(NC(=O)NCc2ccnc3c2ccn3CC(=O)N(C)C)cc1OCCCC(C)C` [Compound C5INH-0538] were, in that order, 62.1 nM and 79 nM.

On to `COc1cc(CCCCN(C)C)c(NC(=O)N[C@@H](CO)c2ccccc2OC)cc1OCCCC(C)C` [Compound C5INH-0539], for which the IC50 in experiment [1] amounted to 617 nM. The Kd in experiment [2] (setting [5]) turned out to be 430 nM. The like results for `COc1ccc(NC(=O)NCc2ccnc3c2ccn3CCCN)cc1OCCCC(C)C` [Compound C5INH-0544] were, in that order, 130 nM and 210 nM. The like results for `COc1ccc(NC(=O)NCc2ccnc3c2ccn3CC2CCCN2C)cc1OCCCC(C)C` (stereo not drawn) [Compound C5INH-0545] were, in that order, 89.5 nM and 31 nM. The like results for `COc1cc(CNC(C)=O)c(NC(=O)NCc2ccnc3c2ccn3CCCN(C)C)cc1OCCCC(C)C` [Compound C5INH-0547] were, in that order, 287 nM and 42 nM. For `COc1ccc(NC(=O)NC(CO)c2ccc(F)cc2)cc1OCCCC(C)C` (stereo not drawn) [SM0020], the IC50 in experiment [3] is 478 nM.

Take `COc1cccc(C(CO)NC(=O)Nc2ccc(OC)c(OCCCC(C)C)c2)c1` (stereo not drawn) [SM0028]: the IC50 in experiment [3] worked out at 896 nM.

In the case of `COc1ccc(CNC(=O)Nc2ccc(OC)c(OCCCC(C)C)c2)cc1` [SM0041], in experiment [3], the IC50 turned out to be 1800 nM. For the molecule `COc1ccc(NC(=O)N[C@@H](CO)c2ccccc2)cc1OCCCCl` [SM0051], in experiment [3], the IC50 came out at 3060 nM.

As to `COc1ccc(NC(=O)NC(CO)c2cnn(C)c2)cc1OCCCC(C)C` (stereo not drawn) [SM0055], in experiment [3], the IC50 was determined as 3450 nM. Still for that read-out and setting: for `COc1ccc(NC(=O)N[C@@H](CO)c2ccccc2)cc1Br` [SM0060] the value was 4470 nM. For `COc1ccc(NC(=O)NCc2ccc(Br)cc2)cc1OCCCC(C)C` [SM0089], the Kd in experiment [4] came out at 3100 nM. Still for that read-out and setting: for `COc1ccc(NC(=O)NCc2cncnc2)cc1OCCCC(C)C` [SM0090] the value was 2100 nM; for `COc1ccc(NC(=O)N[C@@H](CO)C(C)(C)C)cc1OCCCC(C)C` [SM0091], 990 nM. The same measure, in the same setting: for `COc1ccc(NC(=O)NC(CO)Cc2ccccc2)cc1OCCCC(C)C` (stereo not drawn) [SM0092] the value was 540 nM; for `CNC(=O)[C@H](NC(=O)Nc1ccc(OC)c(OCCCC(C)C)c1)c1ccccc1` [SM0093], 240 nM; for `COc1ccc(NC(=O)N[C@@H](CO)c2ccccc2)cc1OCCN1CCC(O)CC1` [SM0094], 380 nM. In turn, `COc1ccc(NC(=O)N[C@@H](CO)c2ccccc2)cc1OCc1ccccn1` [SM0095] returned a Kd in experiment [4] of 1600 nM. The same measure, in the same setting: for `CCCCn1ncc2ccc(NC(=O)N[C@@H](CO)c3ccccc3)cc21` [SM0096, 1-(1-butylindazol-6-yl)-3-[(1R)-2-hydroxy-1-phenyl-ethyl]urea] the value was 2100 nM; for `COc1ccc(NC(=O)NC2CCCCC2O)cc1OCCCC(C)C` (stereo not drawn) [SM0097], 2200 nM. The same measure, in the same setting: for `COc1ccc(NC(=O)N[C@@H](CO)c2ccccc2)cc1OCc1ccncc1` [SM0098] the value was 3800 nM; for `O=C(Nc1ccc2c(c1)OC(F)(F)O2)N[C@@H](CO)c1ccccc1` [SM0099], 5700 nM. Same read-out and setting: for `COc1ccc(NC(=O)NCc2ccccc2CN(C)C)cc1OCCCC(C)C` [SM0100] the value was 120 nM; for `COc1ccc(NC(=O)N[C@@H](CO)c2ccccc2)cc1OCCC1CC1` [SM0101], 150 nM; for `COc1ccc(NC(=O)N[C@@H](C(N)=O)c2ccccc2)cc1OCCCC(C)C` [SM0102], 1700 nM. In turn, `COc1ccc(NC(=O)N[C@H]2c3ccccc3C[C@@H]2O)cc1OCCCC(C)C` [SM0103] showed a Kd in experiment [4] of 1800 nM. The same measure, in the same setting: for `COc1ccc(NC(=O)N[C@@H](CO)c2ccccc2)cc1OCCN(C)C` [SM0105, 1-[3-[2-(dimethylamino)ethoxy]-4-methoxy-phenyl]-3-[(1R)-2-hydroxy-1-phenyl-ethyl]urea] the value was 2600 nM; for `COc1ccc(NC(=O)NC(c2ccccc2F)[C@@H](O)CO)cc1OCCCC(C)C` (stereo partly drawn) [SM0106], 2700 nM; for `COc1ccc(NC(=O)N[C@@H](C)c2ccccc2)cc1OCC(C)(C)N(C)C` [SM0107], 3200 nM. Consider `COc1ccc(NC(=O)N[C@@H](C)c2ccc(Br)cc2)cc1OCCCC(C)C` [SM0108], for which the Kd in experiment [4] is 3200 nM. The same measure, in the same setting: for `COc1ccc(NC(=O)N(C)CCO)cc1OCCCC(C)C` [SM0109] the value was 3800 nM; for `CCCOc1cc(NC(=O)O[C@@H](C)c2ccccc2)ccc1OC` [SM0110], 3900 nM. The same measure, in the same setting: for `COc1ccc(NC(=O)NCC2CCC(F)(F)CC2)cc1OCCCC(C)C` [SM0111] the value was 4700 nM; for `CCCCCCOc1ccc(NC(=O)N[C@@H](CO)c2ccccc2)cc1` [SM0112], 5500 nM.

`COc1ccc(NC(=O)NCc2ccc(S(C)(=O)=O)cc2)cc1OCCCC(C)C` [SM0113] yielded a Kd in experiment [4] of 601 nM. On the same count and under the same terms, for `COc1ccc(NC(=O)N[C@@H](CO)c2ccccc2)cc1OCc1cncnc1` [SM0114, 1-[(1R)-2-hydroxy-1-phenyl-ethyl]-3-[4-methoxy-3-(pyrimidin-5-ylmethoxy)phenyl] urea] the value was 6400 nM; for `COc1ccc(NC(=O)N[C@@H](CO)c2ccccc2)cc1OCCN1CCN(C)CC1` [SM0115], 6700 nM; for `CCCCN(C)C(=O)c1cccc(NC(=O)N[C@@H](CO)c2ccccc2)c1` [SM0116, N-butyl-3-[[(1R)-2-hydroxy-1-phenyl-ethyl]carbamoylamino]-N-methyl-benzamide], 690 nM. Still for that read-out and setting: for `COc1ccc(NC(=O)NCCc2ccccc2)cc1OCCCC(C)C` [SM0117] the value was 7600 nM; for `COc1ccc(NC(=O)N[C@H](CCO)c2ccccc2)cc1OCCCC(C)C` [SM0118], 8100 nM. `COc1ccc(NC(=O)N[C@@H](CO)c2ccccc2)cc1OCCCC#N` [SM0119] yielded a Kd in experiment [4] of 830 nM. As to `COC[C@H](NC(=O)Nc1ccc(OC)c(OCCCC(C)C)c1)c1ccccc1` [SM0120], the Kd in experiment [4] was determined as 9500 nM.

As for `COc1ccc(NC(=O)NC(CN(C)C)c2ccccc2)cc1OCCCC(C)C` (stereo not drawn) [SM0121], in experiment [4], the Kd worked out at 9500 nM.
